For one experiment, the system named is PY79 bioI::cat. Briefly: Growth of bioI::cat mutants on biotin-free medium with supplements. It is filed as cell-based, B. subtilis.
Another experiment has as its system B. subtilis. Nature of the experiment: Stimulation of biotin vitamer production by pimelic acid. Format: cell-based. Conditions: 1 g/l. As for the experimental part:
In all fermentations, 1 g/l pimelic acid was added to both the initial batch and feed solutions. BI282, BI278 and BI276 were the most optimized for biotin and biotin vitamer production.
Addition of pimelate to the fermentation medium results in an increased level of a biotin vitamer which is probably KAPA (FIG. 15, lane D). This was shown by an increase in the KAPA/BSO spot compared to similar fermentations without pimelate (FIG. 15, lane B).
(§1) Azelaic acid, a straight chain C9 dicarboxylic acid, is a homolog of pimelic acid and is thought to be an intermediate in the conversion of oleic acid to pimelic acid (see Ohsugi and Inoue (1981) Agric. Biol. Chem. 45: 2355-2356, hereby incorporated by reference).

The test system of experiment [1] is E. coli strain RY604(ΔbioH) containing pBIO403. Briefly: Growth of E. coli carrying only B. subtilis bioW, with pimelic acid and azelaic acid. Format: cell-based. The method, then: A plasmid (pBIO403) containing only the B. subtilis bioW gene and its promoter cloned into pCL1921 (Lerner and Inouye, 1990, supra), complemented both E. coli ΔbioH and bioC mutants, if and only if pimelic acid was added to the medium at about 30 mg/l. This experiment confirmed that bioW encodes a pimelyl-CoA synthetase that can bypass bioH and bioC in E. coli.
(§2) Therefore, Applicants concluded that azelaic acid acts at the level of pimelyl CoA synthetase (bioW), either as a competitive inhibitor of pimelic acid, or by incorporation into a biotin homolog or other toxic intermediate.

For another experiment, the system named is E. coli strain MM294. Nature of the experiment: Azelaic acid sensitivity of wild-type E. coli. Format: cell-based.
Excerpt: as §2

Experiment [2] has as its system B. subtilis PY79 and azelaic acid resistant mutants. Nature of the experiment: Growth inhibition by azelaic acid, minimal agar. It is filed as cell-based.
Excerpt: as §1
Seven spontaneous mutants that outgrew the background of PY79 on 2 g/l Azelaic acid were isolated. The resistance to azelaic acid appeared to be a stable trait in all but one case (see below). The seven mutants were provisionally named PA1-PA7 (PY79 Azelaic acid resistant). PA1 through PA7 were grown in test tubes in VY medium, and biotin production was assayed using E. coli indicator strains (Table 15). The mutants fell into two classes, those that yielded more biotin than PY79 (PA5, PA6) and those that were similar to PY79 (PA1, 2, 3, and 7). PA4 appeared to be either unstable or not a true mutant and was dropped from further study. Applicants also noticed that the mutants fell into two classes with respect to colony size on minimal agar with 2 g/l azelaic acid, and that these two classes corresponded to the two classes of biotin producers (Table 11). The mutants with the most biotin in the supernatant (PA5 and PA6) gave small colonies, while the biotin non-secreters, PA1, 2, 3, and 7, gave large colonies. PA1 and PA3 secreted a compound that cross-fed PY79 (i.e., reversed the azelaic acid inhibition of PY79) on minimal plates containing 2 g/l azelaic acid.

As to `O=C(O)CCCCCC(=O)O` [pimelic acid], the “Restoration of growth of PY79 bioI::cat9 bradytroph” value in the experiment on PY79 bioI::cat (30 mg/l) was “restore wild-type growth”. In addition, the “Growth of PY79 bioI::cat strains (either cat orientation) on biotin-free medium” value in the experiment with PY79 bioI::cat (pimelic acid 33 μg/ml) was “grew to wild-type levels”. Also, in the experiment with B. subtilis, the “Effect on biotin vitamer production in B. subtilis” value is on record as “stimulate biotin vitamer production”. For the same molecule, the “Satisfaction of the biotin requirement of RY604(ΔbioH)/pBIO403” value in experiment [1] (30 mg/l) was “can satisfy the biotin requirement”.

`O=C(O)CCCCCCCC(=O)O` [azelaic acid, Azelaic acid]: in the experiment on E. coli strain MM294, the “Sensitivity of wild-type E. coli MM294 to azelaic acid” value is “relatively resistant”. Besides, in the experiment on PY79 bioI::cat (30 mg/l), the “Growth inhibition of PY79 bioI::cat9” value was “severely inhibited the growth”. Moreover, the “Substitution for pimelic acid in supporting growth of PY79 bioI::cat9” value in the experiment on PY79 bioI::cat (30 mg/l) is on record as “does not substitute for pimelic acid”. Further, the “Sensitivity of RY604/pBIO403 to azelaic acid” value in experiment [1] (grown in excess pimelic acid (80 mg/l)) was “sensitive to inhibition”. In addition, the “Growth inhibition of wild-type B. subtilis” value in experiment [2] (azelaic acid at concentrations higher than 30 mg/l) was “inhibits the growth”. Also, in experiment [2] (minimal agar, azelaic acid 2 g/l (about 10^−2 M), did not kill or completely prevent growth), the “Growth inhibition of PY79” value is listed as “severely inhibited growth”. Also, the “Colony size on 2 g/l azelaic acid” value in experiment [2] (strain PA1, minimal agar) is “large”; in experiment [2] (strain PA2, minimal agar), “large”; in experiment [2] (strain PA3, minimal agar), “large”; in experiment [2] (strain PA4, minimal agar), “tiny”; in experiment [2] (strain PA5, minimal agar), “small”; in experiment [2] (strain PA6, minimal agar), “small”. Moreover, the “Colony size on 2 g/l azelaic acid” value was “large” in experiment [2] (strain PA7, minimal agar) and “tiny” in experiment [2] (strain PY79, minimal agar).
